Experimental data as given in ChEMBL document CHEMBL5523700, “Discovery and characterization of potent spiro-isoxazole-based cereblon ligands with a novel binding mode” (Eur J Med Chem, 2024).

What was measured:
[1] = test system: MM1.S; test: Cytotoxicity against human MM1.S cells assessed as cell survival at 30 uM incubated for 48 hrs by Cell Titer-Glo luminescent assay relative to control; format: functional; conditions: read-out: Survival
[2] = test system: MOLP-8; test: Cytotoxicity against human MOLP8 cells assessed as cell survival at 30 uM incubated for 48 hrs by Cell Titer-Glo luminescent assay relative to control; format: functional; conditions: read-out: Survival
[3] = Cytotoxicity against human PBMC cells assessed as cell survival at 30 uM incubated for 48 hrs by Cell Titer-Glo luminescent assay relative to control; format: toxicity, cell-based; conditions: read-out: Survival
[4] = test system: KMS-12-PE; test: Cytotoxicity against human KMS-12-PE cells assessed as cell survival at 30 uM incubated for 48 hrs by Cell Titer-Glo luminescent assay relative to control; format: functional; conditions: read-out: Survival
[5] = Lipophilicity, logP of compound by HPLC analysis; format: physicochemical
[6] = Stability in human plasma assessed as half-life at 10 uM incubated upto 480 mins by HPLC analysis; format: ADME, cell-free
[7] = molecular target: Protein cereblon (Homo sapiens, UniProt Q96SW2); test: Binding affinity to human CRBN TBD assessed as inhibition constant using BODIPY-uracil as substrate by Microscale thermophoresis assay
Sequence of Protein cereblon (Q96SW2 whole entry): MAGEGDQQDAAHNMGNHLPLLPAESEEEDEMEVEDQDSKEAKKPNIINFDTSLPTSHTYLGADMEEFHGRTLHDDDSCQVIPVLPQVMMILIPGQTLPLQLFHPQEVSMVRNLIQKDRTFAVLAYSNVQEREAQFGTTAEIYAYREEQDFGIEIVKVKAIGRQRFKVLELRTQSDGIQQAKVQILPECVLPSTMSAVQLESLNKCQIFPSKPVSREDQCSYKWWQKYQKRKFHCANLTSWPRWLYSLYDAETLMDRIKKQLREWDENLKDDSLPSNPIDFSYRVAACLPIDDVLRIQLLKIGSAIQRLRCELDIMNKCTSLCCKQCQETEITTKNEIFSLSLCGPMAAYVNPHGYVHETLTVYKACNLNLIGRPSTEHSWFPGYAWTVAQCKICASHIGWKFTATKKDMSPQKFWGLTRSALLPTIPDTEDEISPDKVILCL

| Structure (SMILES) | viability at 30 µM [1] [%] | viability at 30 µM [2] [%] | viability at 48 h, 30 µM [3] [%] | viability at 30 µM [4] [%] | logP [5] | half-life at 10 µM [6] [h] | Ki [7] [µM] |
| --- | --- | --- | --- | --- | --- | --- | --- |
| O=C1CCC2(CC(c3ccccc3[N+](=O)[O-])=NO2)C(=O)N1 (stereo unspecified) | 81.9 | 75.5 | 71.5 | 88.5 | 1.23 | – | – |
| O=C1CCC2(CC(c3ccccc3Br)=NO2)C(=O)N1 (stereo unspecified) | 88.3 | 100 | 74.9 | 97.8 | 1.68 | – | – |
| O=C1CCC2(CC(c3ccccc3I)=NO2)C(=O)N1 (stereo unspecified) | 69.3 | 82.2 | 100 | 100 | 1.75 | – | – |
| O=C1CCC2(CC(C3CCCCC3)=NO2)C(=O)N1 (stereo unspecified) | 100 | 97 | 100 | 100 | 1.87 | – | – |
| CCCC1=NOC2(CCC(=O)NC2=O)C1 (stereo unspecified) | 76.7 | 100 | 100 | 100 | 0.87 | – | – |
| COc1ccc(C2=NOC3(CCC(=O)NC3=O)C2)c(OC)c1OC (stereo unspecified) | 78.7 | 66.3 | 82.4 | 72.2 | 2.67 | – | – |
| O=C1CCC2(CC(c3c(Cl)cccc3Cl)=NO2)C(=O)N1 (stereo unspecified) | 39.5 | 94.9 | 88.6 | 99.3 | 1.96 | – | – |
| O=C1CCC2(CC(c3ccc(C(=O)O)cc3)=NO2)C(=O)N1 (stereo unspecified) | 95.6 | 100 | 99.5 | 97.3 | – | – | – |
| CC(C)(C)C1=NOC2(CCC(=O)NC2=O)C1 (stereo unspecified) | 75.6 | 100 | 100 | 100 | 1.09 | – | – |
| O=C1CCC2(CC(c3ccccc3Cl)=NO2)C(=O)N1 (stereo unspecified) | 43.3 | 100 | 100 | 100 | 1.64 | 4.97 | – |
| CC1(C)CC(=O)NC(=O)C1 | – | – | – | – | – | – | 103 |
| O=C1CCC2(CC(c3ccccc3F)=NO2)C(=O)N1 (stereo unspecified) | 76.5 | 84.5 | 88.6 | 89.2 | 1.37 | – | – |
| O=C1CCC2(CC(C3CCCC3)=NO2)C(=O)N1 (stereo unspecified) | 62.2 | 93 | 89.9 | 92 | 1.28 | – | – |
| O=C1CCC2(CC(c3ccc(Cl)cc3Cl)=NO2)C(=O)N1 (stereo unspecified) | 71.7 | 100 | 100 | 100 | 2.68 | – | – |
| O=C1CCC2(CC(c3cccnc3)=NO2)C(=O)N1 (stereo unspecified) | 23.2 | 75.5 | 83.6 | 88.9 | – | – | – |
| COc1ccccc1C1=NOC2(CCC(=O)NC2=O)C1 (stereo unspecified) | 94.8 | 79.3 | 100 | 86.6 | 2.22 | – | – |
| CCC(CC)C1=NOC2(CCC(=O)NC2=O)C1 (stereo unspecified) | 89.1 | 94.1 | 91.2 | 98.9 | 1.6 | – | – |
| Nc1cccc2c1C(=O)N(C1CCC(=O)NC1=O)C2=O (stereo unspecified) [POMALIDOMIDE] | – | – | – | – | – | 3.03 | – |
| O=C1CCC(N2C(=O)c3ccccc3C2=O)C(=O)N1 (stereo unspecified) [THALIDOMIDE] | 11.4 | 31.6 | 94.2 | 44.1 | 0.3 | – | – |
